Assay results: paper PMC6720883, “In Vitro Inhibitory Effects of APINACA on Human Major Cytochrome P450, UDP-Glucuronosyltransferase Enzymes, and Drug Transporters” (Molecules, 2019)
Where two headings read alike, the source gives them in different places.

How the values were obtained:
[1] = molecular target: T1, CYP3A4 (Homo sapiens, UniProt P08684); details: cited from earlier work
[2] = molecular target: T2, OATP1B1 (Homo sapiens, UniProt Q9Y6L6); assay: Uptake of [3-H]estrone-3-sulfate in HEK293-OATP1B1 cells; format: in vitro ADME; details: HEK293-OATP1B1 cells; 0.1 μM [3-H]estrone-3-sulfate; 5 min uptake
T2 construct: host or cells: HEK293 (transient overexpression)
T2 sequence (Q9Y6L6 1-691): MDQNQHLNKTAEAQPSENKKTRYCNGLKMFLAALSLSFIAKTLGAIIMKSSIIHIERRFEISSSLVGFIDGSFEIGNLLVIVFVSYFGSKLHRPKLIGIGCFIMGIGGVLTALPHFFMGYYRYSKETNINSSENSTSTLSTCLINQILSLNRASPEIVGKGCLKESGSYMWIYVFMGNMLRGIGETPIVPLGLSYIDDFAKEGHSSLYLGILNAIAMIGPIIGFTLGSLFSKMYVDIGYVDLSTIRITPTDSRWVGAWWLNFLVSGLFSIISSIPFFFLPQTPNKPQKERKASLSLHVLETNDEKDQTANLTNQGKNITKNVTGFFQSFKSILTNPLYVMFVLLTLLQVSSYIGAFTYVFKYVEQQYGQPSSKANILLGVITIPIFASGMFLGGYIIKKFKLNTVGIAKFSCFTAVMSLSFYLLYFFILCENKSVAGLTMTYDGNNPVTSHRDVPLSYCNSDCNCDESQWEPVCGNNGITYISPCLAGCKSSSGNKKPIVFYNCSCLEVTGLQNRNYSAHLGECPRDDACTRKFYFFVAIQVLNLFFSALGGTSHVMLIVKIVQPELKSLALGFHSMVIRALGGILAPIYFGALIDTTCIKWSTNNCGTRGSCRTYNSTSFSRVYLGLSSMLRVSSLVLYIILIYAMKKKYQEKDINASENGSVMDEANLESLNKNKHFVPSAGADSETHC
Description: To examine the effects of APINACA and typical inhibitors on transporter activity, the uptake of a probe substrate into HEK293 cells overexpressing the respective solute carrier transporters was measured in the presence of APINACA (final concentrations of 0–250 μM) or typical inhibitors for 5 min. The concentrations and probe substrates were selected as follows: 0.1 μM [3-H]MPP^+ (for OCT1 and OCT2), 0.1 μM [3-H]PAH (for OAT1), 0.1 μM [3-H]ES (for OAT3 and OATP1B1), and 0.1 μM [3-H]EG (for OATP1B3).
(§1) 12.5 (Systat Software, Inc.; San Jose, CA, USA). […] 1.1 (Systat Software, Inc.).

[3] = molecular target: OATP1B3 (Homo sapiens, UniProt Q9NPD5)
[4] = molecular target: T3, UGT1A1 (Homo sapiens, UniProt P22309); assay: biochemical; format: in vitro ADME
T3 construct: […]; tissue Corning Life Sciences
T3 sequence (P22309 26-533): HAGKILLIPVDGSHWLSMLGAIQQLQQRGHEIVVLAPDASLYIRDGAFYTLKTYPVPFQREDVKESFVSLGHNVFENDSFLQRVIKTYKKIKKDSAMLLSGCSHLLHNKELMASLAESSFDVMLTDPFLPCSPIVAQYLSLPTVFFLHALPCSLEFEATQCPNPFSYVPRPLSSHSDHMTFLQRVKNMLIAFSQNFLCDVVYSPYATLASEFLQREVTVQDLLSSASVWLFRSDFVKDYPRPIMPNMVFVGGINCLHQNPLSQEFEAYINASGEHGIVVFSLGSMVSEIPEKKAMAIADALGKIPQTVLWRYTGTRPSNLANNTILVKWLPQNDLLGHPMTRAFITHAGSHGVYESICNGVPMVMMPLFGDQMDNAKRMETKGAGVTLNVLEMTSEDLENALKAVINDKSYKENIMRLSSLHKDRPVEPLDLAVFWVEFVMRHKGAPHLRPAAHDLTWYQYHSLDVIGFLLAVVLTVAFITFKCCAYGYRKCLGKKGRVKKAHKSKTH
Description: as §1

[5] = molecular target: T4, UGT1A9 (Homo sapiens, UniProt O60656); design: […]; tissue Corning Life Sciences; method as in PMID 23230132; details: human liver microsomes; read-out: Ki for inhibition of UGT1A9-mediated ethanol glucuronidation; cited from earlier work
T4 sequence (O60656 26-530): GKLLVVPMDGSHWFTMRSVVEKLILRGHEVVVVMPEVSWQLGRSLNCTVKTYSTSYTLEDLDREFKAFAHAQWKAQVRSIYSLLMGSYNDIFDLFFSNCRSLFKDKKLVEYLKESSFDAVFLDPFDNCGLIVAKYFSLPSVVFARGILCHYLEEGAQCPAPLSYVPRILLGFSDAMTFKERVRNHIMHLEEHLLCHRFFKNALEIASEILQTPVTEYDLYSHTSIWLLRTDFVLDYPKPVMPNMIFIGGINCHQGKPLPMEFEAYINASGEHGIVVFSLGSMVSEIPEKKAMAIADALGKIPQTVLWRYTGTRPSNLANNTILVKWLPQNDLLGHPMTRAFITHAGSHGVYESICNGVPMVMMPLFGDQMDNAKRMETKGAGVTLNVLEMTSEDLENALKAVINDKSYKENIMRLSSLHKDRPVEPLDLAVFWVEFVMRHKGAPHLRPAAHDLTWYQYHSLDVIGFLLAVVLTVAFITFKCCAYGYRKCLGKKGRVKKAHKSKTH

[6] = molecular target: T1, CYP3A4; design: method as in PMID 22490230; details: human liver microsomes; cited from earlier work
[7] = molecular target: T4, UGT1A9; assay: Inhibition of UGT1A9-catalyzed mycophenolic acid glucuronidation in human liver microsomes; format: in vitro ADME; design: […]; tissue Corning Life Sciences; details: pooled human liver microsomes; 0.2 µM mycophenolic acid; without preincubation (●); read-out: IC50 UGT1A9 mycophenolic acid glucuronidation, without preincubation
Description: as §1

T1 sequence (P08684 2-503): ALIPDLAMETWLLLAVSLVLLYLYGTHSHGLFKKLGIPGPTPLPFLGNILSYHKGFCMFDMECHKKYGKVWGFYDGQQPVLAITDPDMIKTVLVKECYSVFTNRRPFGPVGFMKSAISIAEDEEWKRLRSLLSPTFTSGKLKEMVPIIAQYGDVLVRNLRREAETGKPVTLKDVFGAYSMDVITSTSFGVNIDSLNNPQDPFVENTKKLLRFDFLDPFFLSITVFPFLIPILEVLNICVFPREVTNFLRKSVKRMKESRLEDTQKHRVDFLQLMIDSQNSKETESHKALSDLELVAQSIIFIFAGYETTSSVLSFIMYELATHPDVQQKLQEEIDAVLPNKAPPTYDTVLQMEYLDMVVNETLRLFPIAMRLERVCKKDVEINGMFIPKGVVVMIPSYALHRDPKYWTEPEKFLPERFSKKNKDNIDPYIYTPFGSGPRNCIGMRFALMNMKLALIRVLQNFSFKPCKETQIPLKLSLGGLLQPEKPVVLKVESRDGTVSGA
OATP1B3, sequence (Q9NPD5 whole entry): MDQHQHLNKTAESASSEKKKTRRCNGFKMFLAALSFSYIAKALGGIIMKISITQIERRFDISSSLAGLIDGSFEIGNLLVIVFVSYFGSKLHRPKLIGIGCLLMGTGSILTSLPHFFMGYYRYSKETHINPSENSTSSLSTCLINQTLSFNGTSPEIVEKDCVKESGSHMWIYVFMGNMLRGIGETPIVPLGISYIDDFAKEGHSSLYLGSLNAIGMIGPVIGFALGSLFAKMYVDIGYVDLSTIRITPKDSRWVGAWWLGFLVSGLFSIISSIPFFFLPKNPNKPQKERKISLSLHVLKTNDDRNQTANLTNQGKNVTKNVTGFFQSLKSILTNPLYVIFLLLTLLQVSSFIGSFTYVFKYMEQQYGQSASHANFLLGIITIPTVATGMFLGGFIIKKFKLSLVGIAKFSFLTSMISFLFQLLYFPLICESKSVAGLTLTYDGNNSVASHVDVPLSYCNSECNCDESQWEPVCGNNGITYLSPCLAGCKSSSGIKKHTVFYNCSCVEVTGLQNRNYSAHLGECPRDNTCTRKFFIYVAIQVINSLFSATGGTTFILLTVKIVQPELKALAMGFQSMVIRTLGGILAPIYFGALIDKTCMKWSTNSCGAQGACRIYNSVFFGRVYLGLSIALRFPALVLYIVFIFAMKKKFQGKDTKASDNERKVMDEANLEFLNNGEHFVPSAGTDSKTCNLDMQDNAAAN

Compound: O=C(c1cccc2ccccc12)c1cn(CCCCCF)c2ccccc12 [AM-2201]
- Ki ([1]; competitive inhibition, read-out: Ki for competitive inhibition of CYP3A4-catalyzed midazolam 1′-hydroxylation): 4 µM

Compound: CCc1ccc(C(=O)c2cn(CCCCCF)c3ccccc23)c2ccccc12 [EAM-2201]
- kinact for CYP3A4-catalyzed midazolam 1′-hydroxylation ([1]; human liver microsomes): 0.0250 min⁻¹

Compound: Cc1ccc(C(=O)c2cn(CCCCCF)c3ccccc23)c2ccccc12 [MAM-2201]
- Ki ([1]; noncompetitive inhibition, read-out: Ki for noncompetitive inhibition of CYP3A4-catalyzed midazolam 1′-hydroxylation): 5.4 µM

Compound: CO[C@H]1/C=C/O[C@@]2(C)Oc3c(C)c(O)c4c(O)c(c(/C=N/N5CCN(C)CC5)c(O)c4c3C2=O)NC(=O)/C(C)=C\C=C\[C@H](C)[C@H](O)[C@@H](C)[C@@H](O)[C@@H](C)[C@H](OC(C)=O)[C@@H]1C [Rifampin, reference compound]
- IC50 [2]: 22.8 µM
- IC50 [3]: 0.99 µM

Compound: COC(=O)N[C@H](C(=O)N[C@@H](Cc1ccccc1)[C@@H](O)CN(Cc1ccc(-c2ccccn2)cc1)NC(=O)[C@@H](NC(=O)OC)C(C)(C)C)C(C)(C)C [atazanavir, reference compound]
- IC50 [4]: 0.7 µM

Compound: C=C(C)[C@@H]1CCC(C)=C[C@H]1c1c(O)cc(CCCCC)cc1O [cannabidiol]
- Ki [5]: 9.9 µM

Compound: CC[C@H]1OC(=O)[C@H](C)[C@@H](O[C@H]2C[C@@](C)(OC)[C@@H](O)[C@H](C)O2)[C@H](C)[C@@H](O[C@@H]2O[C@H](C)C[C@H](N(C)C)[C@H]2O)[C@](C)(OC)C[C@@H](C)C(=O)[C@H](C)[C@@H](O)[C@]1(C)O [clarithromycin]
- inactivation efficiency (kinact/Ki) for time-dependent inhibition of CYP3A4 [6]: 46.7 M⁻¹ s⁻¹

Compound: C=CCc1ccc(O)c(-c2cc(CC=C)ccc2O)c1 [magnolol, reference compound]
- IC50 [7]: 9.7 µM
